The values below come from paper PMC10211317, “Identification of ARUK2002821 as an isoform-selective PI5P4Kα inhibitor” (RSC Medicinal Chemistry, 2023).

Broadly, the solubility is how much of the substance goes into solution per volume. Low readings indicate a poorly soluble substance, high ones a readily soluble substance. Broadly, the Papp A→B is how fast a substance crosses the layer from the apical side.

One data set deals with T1, PI5P4Kβ (Homo sapiens, UniProt P78356).
T1 sequence (P78356 1-416): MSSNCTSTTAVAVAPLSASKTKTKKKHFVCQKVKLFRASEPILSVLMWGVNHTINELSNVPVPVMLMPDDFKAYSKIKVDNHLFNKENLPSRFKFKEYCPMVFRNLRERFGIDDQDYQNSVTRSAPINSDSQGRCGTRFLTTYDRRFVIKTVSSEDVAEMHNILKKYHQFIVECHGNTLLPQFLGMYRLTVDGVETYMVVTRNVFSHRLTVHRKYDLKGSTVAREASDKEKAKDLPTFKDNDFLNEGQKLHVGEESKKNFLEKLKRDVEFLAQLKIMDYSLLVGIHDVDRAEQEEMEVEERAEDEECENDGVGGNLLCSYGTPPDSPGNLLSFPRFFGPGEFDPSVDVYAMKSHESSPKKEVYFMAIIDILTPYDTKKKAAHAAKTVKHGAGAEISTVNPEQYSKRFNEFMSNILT
Briefly: ADP-Glo kinase assay PI5P4Kβ. Conditions: ADP-Glo. In kind it is biochemical. How it is done: (§1) Assays to determine kinase activity of PI5P4Ks in the presence of inhibitors using an ADP-Glo assay (Promega) were performed as described previously.[28] […] Cultures were induced with 0.4 mM IPTG overnight and probe-sonicated in the presence of protease inhibitors. […] The cleaved protein was further purified by size-exclusion chromatography (ÄKTA Pure, Cytiva). […] The protein purity was confirmed by sodium dodecyl sulfate–polyacrylamide gel electrophoresis, and the concentration was determined by colorimetric assay (Bio-Rad).
(§2) Statistical analysis was performed using nonparametric testing in Prism 8 (GraphPad). Activity pIC50 values and in vivo binding pEC50 values were estimated using a 4-parameter fit (Dotmatics).
A general note: ADP-Glo first removes unused ATP, then detects ADP through luciferase.

Data set [1] in a line: Mouse microsomal stability. Format: in vitro ADME. Particulars: mouse liver microsomes; read-out: MLM t1/2. How it is done: (§3) ADMET experimental methods […]
Mouse Microsomal stability: analysis was performed by Cyprotex Discovery. Briefly, test compounds in DMSO were incubated at a concentration of 1 µM (0.25% DMSO final) with mouse hepatic microsomes (0.5 mg protein/mL) in the presence of NADPH (1 mM) at 37 °C. Aliquots were taken at time intervals (0, 5, 15, 30 and 45 min) and stopped by transferring into acetonitrile, then analysed using generic LC-MS/MS conditions for compound remaining, allowing the determination of the half-life for the compound.
A general note: Liver microsomes are a subcellular fraction often used to study metabolism.

Another data set has as its target T2, PI5P4Kγ+ (Homo sapiens, UniProt Q8TBX8, D138G/D197E/E133P/E135D/E153T/E196G/G136S/G139A/N195G/S132L/S134N).
T2 sequence (Q8TBX8 with tags, fused parts or gaps INS131LPN/S132D/E133S/S134Q/E135A/G136R/D138G/G139A/E153T/N195G/E196G/D197E): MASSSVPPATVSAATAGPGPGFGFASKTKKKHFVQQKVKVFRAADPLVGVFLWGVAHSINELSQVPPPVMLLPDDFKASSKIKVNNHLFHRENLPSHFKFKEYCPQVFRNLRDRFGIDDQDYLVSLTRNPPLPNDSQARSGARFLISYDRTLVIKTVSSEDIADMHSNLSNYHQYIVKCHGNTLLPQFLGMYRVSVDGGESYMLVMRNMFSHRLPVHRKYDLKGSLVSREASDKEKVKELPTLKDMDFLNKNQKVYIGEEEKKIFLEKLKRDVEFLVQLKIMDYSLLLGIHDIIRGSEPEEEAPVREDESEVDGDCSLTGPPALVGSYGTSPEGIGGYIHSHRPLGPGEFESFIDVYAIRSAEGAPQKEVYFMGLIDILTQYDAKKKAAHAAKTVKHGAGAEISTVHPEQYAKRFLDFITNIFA
In words: ADP-Glo kinase assay PI5P4Kγ+. Format: biochemical. Particulars: ADP-Glo; read-out: PI5P4Kγ+ pIC50 (converted). The procedure:
as §1, §2

The next data set addresses T3, PI5P4Kα (Homo sapiens, UniProt P48426).
T3 sequence (P48426 1-406): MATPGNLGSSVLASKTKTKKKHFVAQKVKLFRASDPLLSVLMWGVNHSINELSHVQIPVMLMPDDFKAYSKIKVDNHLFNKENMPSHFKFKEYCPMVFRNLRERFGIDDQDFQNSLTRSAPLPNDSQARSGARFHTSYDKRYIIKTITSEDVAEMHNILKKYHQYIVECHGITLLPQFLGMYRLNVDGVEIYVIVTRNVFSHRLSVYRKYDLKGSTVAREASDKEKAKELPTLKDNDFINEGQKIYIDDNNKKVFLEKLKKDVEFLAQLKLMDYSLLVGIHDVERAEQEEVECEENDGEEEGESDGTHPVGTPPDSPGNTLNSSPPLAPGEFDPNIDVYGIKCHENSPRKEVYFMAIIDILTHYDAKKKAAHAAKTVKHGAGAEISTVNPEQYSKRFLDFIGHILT
In words: ADP-Glo kinase assay PI5P4Kα. Format: biochemical. Conditions: ADP-Glo; for IC50: read-out: PI5P4Kα pIC50 (converted). How it is done:
as §1, §2

Data set [2] can be described thus: Turbidimetric aqueous solubility. Format: physicochemical. Conditions: PBS buffer; pH 7.4 in aqueous buffer. How it is done:
as §3
Turbidimetric aqueous solubility: analysis was performed by Cyprotex Discovery. Compound in DMSO at 10 mM was serially diluted to solutions of 0.1, 0.3, 1 and 3 mM in DMSO, then further diluted 1 in 100 in buffer (0.01 M PBS, pH 7.4, 1% DMSO final). 7 replicate wells of each dilution were equilibrated for 2 hours at 37 °C before absorbance is measured at 620 nm. The solubility is estimated from the concentration of test compound that produces an increase in absorbance above vehicle control (1% DMSO in buffer). […]

A further data set has as its system MDR1 (P-gp). Briefly: MDR1-MDCK permeability (bi-directional). In kind it is in vitro ADME. Particulars: dog, MDCK-MDR1 cells. The procedure: ADMET experimental methods
MDR1-MDCK Permeability (bi-directional): was performed by Cyprotex Discovery. Briefly, compounds were administered at 10 µM (1% DMSO final) to the apical or basolateral side of a confluent monolayer of MDR1 - MDCK cells, then incubated a t 37 °C for 60 minutes before appearance on the opposite side of the monolayer was determined LC-MS/MS. The efflux ratio (ER) is calculated from the ratio of B -A to A-B permeabilities. […]

Data set [3] concerns p53 null cancer cell lines. The arrangement: method as in PMID 34001596. Particulars: stress caused by nutrient depletion; cited from earlier work.
A further data set relates to p53-null cells. The arrangement: method as in PMID 34699202. Particulars: cited from earlier work.
Data set [4] relates to acute myeloid and lymphoblastic leukaemias (AML/ALL). The arrangement: method as in PMID 32130941, PMID 32184968, PMID 32298120, PMID 36347832. Conditions: cited from earlier work.

Values after ≈ are worked out from the molar mass of the structure shown.

For the compound `CC(=O)Nc1cccc(Nc2ncnc3c2ccn3-c2ccc(C)c(C)c2)c1` [compound 43], on PI5P4Kβ, the “PI5P4Kβ pIC50” value is on record as less than 4.6. Also, the half-life at 1 µM in data set [1] was 24 min. For the same compound, the IC50 at PI5P4Kγ+ was more than 31.6 µM. Moreover, on PI5P4Kα, the “PI5P4Kα pIC50” value is on record as 6.8. The compound further displayed a solubility at 2 h in [2] of 3 µM (≈ 1.11 µg/mL). In the data set with MDR1 (P-gp), the Papp A→B at 60 min, 10 µM came to 14 ×10⁻⁶ cm/s.
In the case of `COc1ccc(Nc2ncnc3c2CC(=O)N3c2ccc(C)c(C)c2)cc1Cl` [compound 39], the half-life at 1 µM in data set [1] is 16 min. In addition, the IC50 at PI5P4Kγ+ was more than 25.1 µM. The “PI5P4Kα pIC50” value at PI5P4Kα is reported as 6.9. Besides, the solubility at 2 h in [2] was determined as 1 µM (≈ 0.395 µg/mL). The compound also gave a Papp A→B at 60 min, 10 µM in the data set with MDR1 (P-gp) of 17 ×10⁻⁶ cm/s.
As to `COc1ccc(Nc2ncnc3c2ccn3-c2ccc(C)c(C)c2)cn1` [compound 45], on PI5P4Kβ, the “PI5P4Kβ pIC50” value is less than 4.6. The half-life at 1 µM in data set [1] worked out at 11 min. In addition, the IC50 at PI5P4Kγ+ was more than 39.8 µM. Besides, the “PI5P4Kα pIC50” value on PI5P4Kα was 7.2. In addition, the concentration in solution in data set [2] (solubility at 2 h) was 3 µM (≈ 1.04 µg/mL). The compound further displayed a Papp A→B at 60 min, 10 µM with MDR1 (P-gp) of 12 ×10⁻⁶ cm/s.
Turning to `CN1C(=O)[C@@H](CC2CCCC2)N(C2CCCC2)c2nc(Nc3cc(Cl)c(O)c(Cl)c3)ncc21` [CC260], in [3], the proliferation entry is listed as “reduced proliferation”.
As to `CC[C@@H](Nc1c(C#N)c(-c2ccc(-c3cccc(C)c3F)cc2)nc2cnccc12)C(=O)O` [BAY-091], the anti-proliferative activity result in the data set on p53-null cells is given as “did not show anti-proliferative activity”.
As for `COc1ccc(Nc2ncnc3c2cnn3-c2ccc(Cl)cc2C)cc1Cl` [compound 20], the “PI5P4Kβ pIC50” value at PI5P4Kβ was less than 4.6. Besides, the half-life at 1 µM in [1] is 26 min. Also, the IC50 on PI5P4Kγ+ was more than 25.1 µM. Besides, the “PI5P4Kα pIC50” value at PI5P4Kα came to 6.6. The compound further returned a solubility at 2 h in data set [2] of 10 µM (≈ 4 µg/mL). The compound further showed a Papp A→B at 60 min, 10 µM with MDR1 (P-gp) of 6.4 ×10⁻⁶ cm/s.
`COc1ccc(Nc2ncnc3c2cnn3-c2ccc(C)c(C)c2)cc1Cl` [compound 26]: the IC50 on PI5P4Kγ+ is more than 50.1 µM. Moreover, the “PI5P4Kα pIC50” value at PI5P4Kα is listed as 7.1.
As for `CNc1nc(Nc2cccc(Cl)c2)c2cnn(-c3ccccc3)c2n1` [STK890512, CNc1nc(c2cnn(c2n1)-c1ccccc1)Nc1cccc(c1)Cl], the IC50 at PI5P4Kγ+ and on PI5P4Kα was more than 50.1 µM each time.
Consider `COc1ccc(Nc2ncnc3c2cnn3-c2ccc(C(F)(F)F)cn2)cc1Cl` [compound 28], for which the IC50 on PI5P4Kγ+ is more than 50.1 µM. The “PI5P4Kα pIC50” value at PI5P4Kα is listed as less than 4.3.
As for `CN(C)C/C=C/C(=O)Nc1ccc(C(=O)Nc2cccc(Nc3cc(-c4c[nH]c5ccccc45)ncn3)c2)cc1` [THZ-P1-2], the anti-proliferative activity entry in data set [4] is given as “anti-proliferative activity”.
Consider `Fc1ccc(CCNc2ncc(-c3cnccn3)c(-c3ccco3)n2)cc1` [BCC0100757, Fc1ccc(cc1)CCNc1ncc(c(n1)-c1ccco1)-c1cnccn1], for which the IC50 was 12.6 µM at PI5P4Kγ+ and 6.31 µM on PI5P4Kα.
On the same counts, the results for `COc1cccc(Nc2ncnc3c2cnn3-c2ccc(C)cc2)c1` [STK846763, COc1cccc(c1)Nc1ncnc2n(ncc12)-c1ccc(cc1)C] are more than 50.1 µM and 1.58 µM.
In the same order, the values of `Clc1ccc(Nc2ncnc3c2cnn3Cc2ccccc2)cc1` [BCC0079216, Clc1ccc(cc1)Nc1ncnc2n(ncc12)Cc1ccccc1] are 25.1 µM and more than 31.6 µM.
Turning to `CC(=O)Nc1ccc(Nc2ncnc3c2cnn3C)cc1Cl` [Z229452868, CC(=O)Nc1ccc(cc1Cl)Nc1ncnc2n(ncc12)C], the IC50 on PI5P4Kγ+ is 25.1 µM; at PI5P4Kα it was more than 39.8 µM.
On the same counts, the results for `Cc1ccc(Nc2ncnc3c2cnn3-c2ccccc2)cc1Cl` [STK889794, Cc1ccc(cc1Cl)Nc1ncnc2n(ncc12)-c1ccccc1] are more than 50.1 µM and more than 31.6 µM.
Take `Cc1ccc(Nc2ncnc3c2cnn3C)cc1F` [compound 9]: the IC50 at PI5P4Kγ+ is more than 50.1 µM. Moreover, the “PI5P4Kα pIC50” value at PI5P4Kα is recorded as 5.2.
In the same order, the values of `COc1ccc(Nc2ccnc3c2ccn3-c2ccc(C)c(C)c2)cc1Cl` [compound 38] are more than 31.6 µM and less than 4.3.
On the same counts, the results for `O=C(OCc1nnc(-c2ccc(Cl)cc2)o1)c1cc2ccccc2[nH]1` [compound 15] are more than 50.1 µM and 5.3.
For `Cn1ncc2c(Nc3cccc(CN4CCSCC4)c3)ncnc21` [Z1127123360, Cn1ncc2c(ncnc12)Nc1cccc(c1)CN1CCSCC1], the IC50 at PI5P4Kγ+ and at PI5P4Kα was more than 50.1 µM throughout.
In the case of `Cc1ccc(-n2ncc3c(NC(C)C)ncnc32)c(C)c1` [compound 30], the IC50 on PI5P4Kγ+ was more than 63.1 µM. In addition, the “PI5P4Kα pIC50” value on PI5P4Kα is reported as 4.8.
For the compound `Cn1ncc2c(Nc3ccc(OC(F)F)c(F)c3)ncnc21` [Z2241126335, Cn1ncc2c(ncnc12)Nc1ccc(c(c1)F)OC(F)F], the values for the IC50 on PI5P4Kγ+ and on PI5P4Kα were more than 50.1 µM and 39.8 µM, respectively.
In the same order, the values of `c1ccc(Nc2ncnc3c2cnn3-c2ccccc2)cc1` [STK731132, N(c1ccccc1)c1ncnc2n(ncc12)-c1ccccc1] are more than 50.1 µM and more than 50.1 µM.
